Measured values published in patent US20220008382A1, “ALCOHOL ANTIDOTE” (Evanium Healthcare GmbH, priority 2018, published 2022).
Values after ≈ are worked out from the molar mass of the structure shown.

Tests used:
[1] = Saturation solubility in dist. water (HPLC), β-CD complexes; type: physicochemical; details: distilled water, thermodynamic from solid, saturated solution shaken 60 minutes, HPLC DAD-254 nm, read-out: Solubility of taxifolin
Method: Saturation Solubility in Dist. Water (HPLC)
The last most important point in terms of comparing the production methods to one another is solubility in distilled water. The solubility of the complex has a direct influence on bioavailability, because only dissolved complexes/active ingredients can pass the epithelial cells of the GI tract. Moreover, the samples were examined for rel. substances in order to identify possible degradation of the active ingredient during the production process.
10 mg taxifolin (Lavitol® 98.9% purity) was placed in a vial with 5 ml dist. water to make a saturated solution and shaken for 60 minutes. The solution was then transferred to a vial using a syringe with an HPLC filter (0.22 μm) and then measured undiluted (HPLC DAD-254 nm).
500 mg of the sample was placed in a vial with 6 ml dist. water to make a saturated solution and shaken for 60 minutes. The solution was then transferred to a vial using a syringe with an HPLC filter (0.22 μm), diluted 10:1 with distilled water to prevent oversaturation, and then measured (HPLC DAD-254 nm). The taxifolin concentration was calculated in mg/ml based on the peak area, taking into account the dilution.

[2] = Saturation solubility in dist. water (HPLC), γ-CD complexes; type: physicochemical; details: thermodynamic from solid, saturated solution shaken 60 minutes, HPLC DAD-254 nm
Method: 10 mg taxifolin (Lavitol® 98.9% purity) was placed in a vial with 5 ml dist. water to make a saturated solution and shaken for 60 minutes. The solution was then transferred to a vial by means of a syringe with an HPLC filter (0.22 μm) and then measured (HPLC DAD-254 nm).
300 mg of the sample was placed in a vial with 5 ml dist. water to produce a saturated solution and shaken for 60 minutes. The solution was then transferred to a vial using a syringe with an HPLC filter (0.22 μm) and then measured undiluted (HPLC DAD-254 nm).

[3] = Solubility of the solid dispersion with Eudragit E in 0.1 N HCl (simulated gastric juices); type: physicochemical; details: simulated gastric fluid, thermodynamic from solid, saturated solution, room temperature, HPLC, read-out: Solubility of taxifolin
Method: The last most important point for comparing the production methods to one another is solubility in simulated gastric juices. That is, the solubility of the complex directly influences bioavailability, because only dissolved active ingredients can pass the epithelial cells of the GI tract
10 mg taxifolin (Lavitol® 98.9% purity) was placed in a vial with 5 ml 0.1 N HCl to make a saturated solution and shaken for 60 minutes. The solution was then transferred into a vial by means of a syringe with an HPLC filter (0.22 μm) and then measured.
Saturated solutions of the samples in 0.1 molar HCl solution were prepared at room temperature. The solution was then transferred to a vial by means of a syringe with an HPLC filter (0.22 μm), appropriately diluted and the taxifolin concentration of the solution was determined by HLPC.

[4] = Dissolution behaviour, USP apparatus II (paddle); type: physicochemical; details: 100 rpm; for Mean release: N=2, 500 ml 0.1 N HCl
Method: In order to check the dissolution behaviour of the final formulations, dissolution studies of the cyclodextrin and the Eudragit formulation against pure taxifolin were carried out.
Method: In order to determine the dissolution behaviour, the usual procedure according to pharmacopoeia was chosen.
USP apparatus II (paddle); 100 rpm; medium: 500 ml 0.1 N HCl; 2 vessels per sample (N=2); 7 sampling points: 0 min, 5 min, 10 min, 15 min, 20 min, 30 min, 60 min; weighed in: formulation as a powder corresponding to 100 mg taxifolin; detection by HPLC
The following formulations were tested: • taxifolin (Ametis Lavitol®, 98.8% purity) • Eudragit® E CSE 2:1 (solid dispersion formulation) • FD β (cyclodextrin formulation)

[5] = Solubility of taxifolin in organic solvents; type: physicochemical
[6] = in vivo; cited from earlier work
[7] = test system: GABAA receptor α+/β− interface; details: cited from earlier work
[8] = test system: GABAA receptor β+/α− interface at the amino acid β-265ASN; details: cited from earlier work

O=C1c2c(O)cc(O)cc2O[C@H](c2ccc(O)c(O)c2)[C@H]1O [Taxifolin reference, (+)taxifolin]
solubility at 60 min [1]: 0.75 mg/mL (≈ 2460 µM) | solubility at 60 min [2]: 0.75 mg/mL (≈ 2460 µM) | solubility at 60 min [3]: 0.693 mg/mL (≈ 2280 µM) | Mean release ([4]; 5 min): 29% | Release ([4]; 5 min, vessel 1, 500 ml 0.1 N HCl): 28.2% | Release ([4]; 5 min, vessel 2, 500 ml 0.1 N HCl): 29.2% | Mean release ([4]; 10 min): 46% | Release ([4]; 10 min, vessel 1, 500 ml 0.1 N HCl): 46.4% | Release ([4]; 10 min, vessel 2, 500 ml 0.1 N HCl): 44.8% | Mean release ([4]; 15 min, listed as taxifolin): 60% | Mean release ([4]; 15 min, listed as taxifolin (reference)): 60% | Release ([4]; 15 min, vessel 1, 500 ml 0.1 N HCl): 61.1% | Release ([4]; 15 min, vessel 2, 500 ml 0.1 N HCl): 58.7% | Mean release ([4]; 20 min): 69% | Release ([4]; 20 min, vessel 1, 500 ml 0.1 N HCl): 70.4% | Release ([4]; 20 min, vessel 2, 500 ml 0.1 N HCl): 67.5% | Mean release ([4]; 30 min): 79% | Release ([4]; 30 min, vessel 1, 500 ml 0.1 N HCl): 80.8% | Release ([4]; 30 min, vessel 2, 500 ml 0.1 N HCl): 77.4% | Mean release ([4]; 60 min): 92% | Release ([4]; 60 min, vessel 1, 500 ml 0.1 N HCl): 90.8% | Release ([4]; 60 min, vessel 2, 500 ml 0.1 N HCl): 93.1% | Solubility in acetone and ethyl acetate [5]: very soluble | Solubility in diethyl ether [5]: insoluble | NOAEL level [6]: 1500 mg/kg

CCO [ethanol]
Concentration from which the high-affinity binding site is occupied [7]: ≥ 3 mM | Concentration from which the low-affinity binding site is occupied [8]: ≥ 50 mM
